Data reported in PMC10709440, “High-throughput ligand profile characterization in novel cell lines expressing seven heterologous insect olfactory receptors for the detection of volatile plant biomarkers” (Scientific Reports, 2023).
Where two headings read alike, the source gives them in different places.

How the values were obtained:
[1] = molecular target: T1, Drosophila OR85b (Drosophila melanogaster, UniProt Q9VHQ7); assay: Calcium ion fluorescence (GCaMP6) assay, OR85b stable HEK293 cell line; type: cell-based; settings: for OR85b response (VUAA1-normalized) at 1 μM / OR85b response (VUAA1-normalized) at 10 μM / OR85b response (VUAA1-normalized) at 100 μM / Average response: OR85b cell line; for OR85b response (VUAA1-normalized) at 1 μM: VOC concentration 1 μM; for OR85b response (VUAA1-normalized) at 10 μM: VOC concentration 10 μM; for OR85b response (VUAA1-normalized) at 100 μM: VOC concentration 100 μM; for Average response: VUAA1-normalized response, mean of biological replicates; for activation at 1 µM / activation at 10 µM / activation at 100 µM: HEK293, read-out: OR85b response (VUAA1-normalized response)
T1 construct: expressed in transfected cells
T1 sequence (Q9VHQ7 1-390): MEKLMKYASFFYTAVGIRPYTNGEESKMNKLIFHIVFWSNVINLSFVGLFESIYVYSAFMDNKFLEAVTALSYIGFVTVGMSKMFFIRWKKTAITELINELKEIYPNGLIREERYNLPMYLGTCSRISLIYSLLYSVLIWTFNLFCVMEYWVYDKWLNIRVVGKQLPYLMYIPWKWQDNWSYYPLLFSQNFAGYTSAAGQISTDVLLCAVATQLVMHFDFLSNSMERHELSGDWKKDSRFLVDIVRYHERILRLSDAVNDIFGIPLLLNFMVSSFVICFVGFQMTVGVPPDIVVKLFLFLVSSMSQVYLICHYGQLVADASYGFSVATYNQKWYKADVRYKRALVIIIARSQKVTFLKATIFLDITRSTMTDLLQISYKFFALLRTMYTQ
T1 sequence (Q9VNB5 1-486 partner): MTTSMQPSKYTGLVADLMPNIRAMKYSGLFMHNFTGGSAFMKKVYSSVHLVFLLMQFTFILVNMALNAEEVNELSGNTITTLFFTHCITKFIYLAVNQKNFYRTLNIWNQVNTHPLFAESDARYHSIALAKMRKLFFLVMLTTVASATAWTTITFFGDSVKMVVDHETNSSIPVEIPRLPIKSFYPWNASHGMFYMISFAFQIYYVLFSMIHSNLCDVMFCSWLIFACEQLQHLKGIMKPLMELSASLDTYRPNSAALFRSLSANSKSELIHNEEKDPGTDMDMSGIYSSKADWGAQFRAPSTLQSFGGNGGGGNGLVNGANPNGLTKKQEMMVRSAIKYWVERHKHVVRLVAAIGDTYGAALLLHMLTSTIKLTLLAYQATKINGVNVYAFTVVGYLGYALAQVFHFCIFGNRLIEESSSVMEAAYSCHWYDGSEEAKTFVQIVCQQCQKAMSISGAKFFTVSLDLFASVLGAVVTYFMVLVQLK
Outline: (§1)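 HEK293 lines stably expressing each Drosophila OR with GCaMP6, doxycycline-induced (1 μg/mL) 48 or 72 h. Fluorescence recorded 5 s baseline then 30 s after VOC injection at pH 7.3; ΔF=(FMAX−F0)/F0, normalized to 50 µM VUAA1 response per line, triplicate wells averaged; concentration series 0.01–100 μM.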

[2] = molecular target: T2, Drosophila OR98a (Drosophila melanogaster, UniProt Q9VAZ3); assay: Calcium ion fluorescence (GCaMP6) assay, OR98a stable HEK293 cell line; type: cell-based; settings: for OR98a response (VUAA1-normalized) at 1 μM / OR98a response (VUAA1-normalized) at 10 μM / OR98a response (VUAA1-normalized) at 100 μM: OR98a cell line; for OR98a response (VUAA1-normalized) at 1 μM: VOC concentration 1 μM; for OR98a response (VUAA1-normalized) at 10 μM: VOC concentration 10 μM; for OR98a response (VUAA1-normalized) at 100 μM: VOC concentration 100 μM
T2 construct: expressed in transfected cells
T2 sequence (Q9VAZ3 1-397): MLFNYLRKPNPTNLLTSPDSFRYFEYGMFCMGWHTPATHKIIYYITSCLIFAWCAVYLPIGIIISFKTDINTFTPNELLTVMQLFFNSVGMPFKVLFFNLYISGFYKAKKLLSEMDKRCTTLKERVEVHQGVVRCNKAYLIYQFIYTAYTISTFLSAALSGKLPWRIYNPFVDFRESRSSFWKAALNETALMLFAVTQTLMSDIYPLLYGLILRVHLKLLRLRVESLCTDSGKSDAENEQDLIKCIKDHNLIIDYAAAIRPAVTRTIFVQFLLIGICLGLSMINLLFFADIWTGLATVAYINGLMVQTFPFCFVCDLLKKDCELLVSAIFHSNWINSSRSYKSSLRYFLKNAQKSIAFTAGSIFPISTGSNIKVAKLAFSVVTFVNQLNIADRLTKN
T2 sequence (Q9VNB5 1-486 partner): T1 sequence (Q9VNB5 1-486 partner)
Outline: as §1

[3] = ligand concentration 1 (unit not given), threshold 0.05, below shown as 0
[4] = ligand concentration 10 (unit not given), threshold 0.05, below shown as 0
[5] = ligand concentration 100 (unit not given), threshold 0.05, below shown as 0
[6] = HEK293, read-out: Average response
[7] = HEK293, read-out: OR98a response (VUAA1-normalized response)
[8] = concentration 1, normalized fluorescence change, values below 0.05 threshold given as 0
[9] = concentration 10, normalized fluorescence change, values below 0.05 threshold given as 0
[10] = concentration 100, normalized fluorescence change, values below 0.05 threshold given as 0

SMILES	OR85b response (VUAA1-normalized) at 1 μM [1]	OR85b response (VUAA1-normalized) at 10 μM [1]	OR85b response (VUAA1-normalized) at 100 μM [1]	Average response ([1]; cc. 1 µM)	Average response ([1]; cc. 10 µM)	Average response ([1]; cc. 100 µM)	DF norm AVERAGE OR85b [1, 3]	DF norm AVERAGE OR85b [1, 4]	DF norm AVERAGE OR85b [1, 5]	activation at 1 µM [2, 6] [%]	activation at 10 µM [2, 6] [%]	activation at 100 µM [2, 6] [%]	OR98a response (VUAA1-normalized) at 1 μM [2]	OR98a response (VUAA1-normalized) at 10 μM [2]	OR98a response (VUAA1-normalized) at 100 μM [2]	DF norm AVERAGE OR98a [2, 3]	DF norm AVERAGE OR98a [2, 4]	DF norm AVERAGE OR98a [2, 5]	activation at 1 µM [1] [%]	activation at 10 µM [1] [%]	other results
CCCCCCCCC=O [nonanal]	0.00	0.00	0.00	0.00	0.00	0.00	0	0	0	0	0	5.5	0.00	0.00	0.055	0	0	0.05502	–	–	–
C=CCc1ccc(O)c(OC)c1 [eugenol]	–	–	–	0.00	0.0188	0.09	0	0	0.09022	3.37	0	0	–	–	–	0	0	0	0	0	activation at 100 µM [1]: 9%; activation at 1 µM [2, 7]: 0%; activation at 10 µM [2, 7]: 0%; activation at 100 µM [2, 7]: 0%
C=CC(C)(O)CCC=C(C)C (stereo not drawn) [linalool]	0.00	0.00	0.06	0.045	0.00	0.06	0	0	0.06299	0	0	4	0.00	0.00	0.00	0	0	0	–	–	–
CC1=CCC2C(C1)C2(C)C (stereo not drawn) [3-carene]	–	–	–	0.00	0.00	0.00	–	–	–	0	1.26	0	–	–	–	–	–	–	0	0	activation at 100 µM [1]: 0%; DF norm AVERAGE OR85b [1, 8]: 0; DF norm AVERAGE OR85b [1, 9]: 0; DF norm AVERAGE OR85b [1, 10]: 0; activation at 1 µM [2, 7]: 0%; activation at 10 µM [2, 7]: 0%; activation at 100 µM [2, 7]: 0%; DF norm AVERAGE OR98a [2, 8]: 0; DF norm AVERAGE OR98a [2, 9]: 0; DF norm AVERAGE OR98a [2, 10]: 0
